Laboratory results from PMC5908784, “Extracellular loops 2 and 3 of the calcitonin receptor selectively modify agonist binding and efficacy” (Biochemical Pharmacology, 2018).
Numbering of substitutions follows the chain as printed. Where no end group is shown, it is not given here.

Key:
hCTR I300A = target: T1, hCTR I300A (Homo sapiens, UniProt P30988, I300A); experiment: IP1 accumulation; type: cell-based; settings: IP1 maximal response, mean ± S.E.M., SEM
T1 construct: c-Myc (N); expressed in transfected cells
T1 sequence (P30988 25-474 I300A): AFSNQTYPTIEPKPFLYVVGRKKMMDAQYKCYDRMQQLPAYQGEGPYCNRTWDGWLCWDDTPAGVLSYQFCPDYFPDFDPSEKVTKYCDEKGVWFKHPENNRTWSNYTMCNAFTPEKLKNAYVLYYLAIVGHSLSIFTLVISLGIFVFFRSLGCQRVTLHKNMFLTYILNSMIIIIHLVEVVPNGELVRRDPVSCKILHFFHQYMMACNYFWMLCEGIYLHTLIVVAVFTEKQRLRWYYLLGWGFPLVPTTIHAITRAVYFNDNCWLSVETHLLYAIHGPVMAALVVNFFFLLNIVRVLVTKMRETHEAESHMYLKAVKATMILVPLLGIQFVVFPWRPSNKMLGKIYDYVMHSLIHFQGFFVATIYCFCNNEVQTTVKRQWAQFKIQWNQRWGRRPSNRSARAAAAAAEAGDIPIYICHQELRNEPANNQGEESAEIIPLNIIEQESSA
Procedure, shortened: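 Cells bearing the mutant calcitonin receptor were plated overnight, then stimulated with increasing ligand concentrations for 60 min in the presence of LiCl. Endogenous IP1 was read by HTRF after lysis.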

hCTR F359A = target: T2, hCTR F359A (Homo sapiens, UniProt P30988, F359A); experiment: Homologous whole cell competition binding; settings: homologous competition of 125I-sCT(8-32), whole cells, mean ± S.E.M., SEM
T2 construct: expressed in transfected cells
T2 sequence (P30988 25-474 F359A): T1 sequence (P30988 25-474 I300A) with A276I, F335A
Description: (§1) Homologous radioligand competition was performed on 2.5 × 10^4 cells/well seeded into 96-well trays and cultured overnight. Cells were incubated overnight at 4 °C with two concentrations of ^125I-sCT(8-32) (between 25 and 100 pM; specific activity, 2000 Ci/mmol^9) and serial dilutions of non-iodinated sCT(8-32). Non-bound ligand was removed and bound ligand activity was measured using a γ counter (Wallac Wizard 1470 Gamma Counter, Perkin Elmer, 80% counter efficiency). Values were normalized against non-specific binding (0%) defined by the presence of 1 μM of unlabelled sCT(8-32), and total ligand bound in absence of competing sCT(8-32) (100%).
(§2) IC50 and Bmax values were estimated from competitive inhibition of ^125I-sCT(8-32) binding using a 3-parameter logistic equation (log(inhibitor versus response)) in Prism (v7; Graphpad). Data were corrected for radioligand occupancy using the Cheng-Prusoff equation in Prism; as such data are reported as pKi. Emax and EC50 were estimated from concentration-response curves using with a 3-parameter logistic equation in Prism (v7). These values are a composite of functional affinity, efficacy and stimulus response coupling. The Black and Leff operational model of agonism was applied to separate effects on pathway-specific efficacy (τ) from those that modify ligand functional affinity (pKA). Derived τ values were normalized to experimentally determined levels of cell surface expression to provide a measure of efficacy (τc) that is independent of affinity and altered cell surface receptor expression. pKi, pKA and log τc values for mutant receptors were statistically compared to those of the WT receptor using a one-way analysis of variance (ANOVA) and Dunnett’s post-test. Significance was accepted at P < 0.05.

hCTR N365A = target: T3, hCTR N365A (Homo sapiens, UniProt P30988, N365A); experiment: Homologous whole cell competition binding; settings: homologous competition of 125I-sCT(8-32), whole cells, mean ± S.E.M., SEM
T3 construct: c-Myc (N); expressed in transfected cells
T3 sequence (P30988 25-474 N365A): T1 sequence (P30988 25-474 I300A) with A276I, N341A
Description: as §1, §2

hCTR R362A = target: T4, hCTR R362A (Homo sapiens, UniProt P30988, R362A); experiment: Homologous whole cell competition binding; settings: homologous competition of 125I-sCT(8-32), whole cells, mean ± S.E.M., SEM
T4 construct: expressed in transfected cells
T4 sequence (P30988 25-474 R362A): T1 sequence (P30988 25-474 I300A) with A276I, R338A
Description: as §1, §2

Ki (hCTR F359A) [nM] | Ki (hCTR N365A) [nM] | Ki (hCTR R362A) [nM] | Compound | Emax (hCTR I300A) [%]
 |  |  | CC[C@H](C)[C@H](NC(=O)[C@H](C)NC(=O)[C@@H](NC(=O)[C@H](CCC(N)=O)NC(=O)[C@@H]1CCCN1C(=O)[C@H](Cc1ccccc1)NC(=O)[C@@H](NC(=O)[C@H](Cc1c[nH]cn1)NC(=O)[C@H](Cc1ccccc1)NC(=O)[C@H](CCCCN)NC(=O)[C@H](CC(N)=O)NC(=O)[C@H](Cc1ccccc1)NC(=O)[C@H](CC(=O)O)NC(=O)[C@H](CCC(N)=O)NC(=O)[C@@H](NC(=O)[C@H](Cc1ccc(O)cc1)NC(=O)[C@@H](NC(=O)CNC(=O)[C@H](CC(C)C)NC(=O)[C@H](CCSC)NC(=O)[C@@H]1CSSC[C@H](N)C(=O)NCC(=O)N[C@@H](CC(N)=O)C(=O)N[C@@H](CC(C)C)C(=O)N[C@@H](CO)C(=O)N[C@@H]([C@@H](C)O)C(=O)N1)[C@@H](C)O)[C@@H](C)O)[C@@H](C)O)[C@@H](C)O)C(=O)NCC(=O)N[C@H](C(=O)NCC(=O)N[C@@H](C)C(=O)N1CCC[C@H]1C(N)=O)C(C)C [hCT] | 44 ± 4
0.219 | 0.234 | 0.219 | VLGKLSQELHKLQTYPRTNTGSGTP-NH2 [sCT(8-32)] | 
